Experimental data reported in a compilation of properties of binary mixtures (doi:10.1021/je300932n).

Assay: xn = mol fraction of the nth substance listed
Conditions: 101 kPa

CCCC[n+]1ccn(C)c1.N[C@@H](CC(=O)O)C(=O)[O-] + CO
electrical conductivity [S/m]
Conditions	298.15 K	303.15 K	308.15 K	318.15 K
x1 = 0.0099	0.82	0.89	1	1.03
x2 = 0.1001	0.087	0.101	0.124	0.205
x2 = 0.1999	0.093	–	0.155	–
x2 = 0.2999	–	0.148	0.202	0.233
x2 = 0.398	0.125	0.185	–	0.26
x2 = 0.5015	–	0.231	0.263	–
x2 = 0.5949	0.218	–	0.336	0.429
x2 = 0.6969	0.314	–	–	0.64
x2 = 0.7957	–	0.75	0.83	–
x2 = 0.8988	–	1.22	1.28	–
x2 = 0.9214	1.27	1.32	–	1.48
x2 = 0.9501	1.36	1.39	1.44	1.57
x2 = 0.975	1.23	1.25	–	1.39
